Measurements reported in PubChem BioAssay (NCI).
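All cell lines were grown in 96-well plates and treated with compound for 48 hours. TGI marks complete inhibition of growth.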

Key:
Assay in all cases: NCI tumour cell line growth inhibition, 48 h
SNB-78 CNS = system: SNB-78 CNS
RXF-631 renal = system: RXF-631 renal
P388/ADR leukemia = system: P388/ADR leukemia
SN12K1 renal = system: SN12K1 renal
P388 leukemia = system: P388 leukemia

CCC1(N=[N+]=[N-])C(=O)c2ccccc2N(C)C1=O (stereo not drawn)
TGI (SNB-78 CNS): > 100 µM

Brc1ccc(C[P+]2(c3ccccc3)CCCCC2)cc1
TGI (SNB-78 CNS): 84.2 µM

N#CN/C(N)=N/C/N=C(\N)NC#N
TGI (RXF-631 renal): > 100 µM | TGI (SNB-78 CNS): > 100 µM

[N-]=[N+]=NC(c1cn(C2CC(O)C(CO)O2)c(=O)[nH]c1=O)C(Br)Br (stereo not drawn)
TGI (SNB-78 CNS): > 100 µM

Clc1ccc(C(c2ccccc2Cl)C(Cl)Cl)cc1 (stereo not drawn)
TGI (RXF-631 renal): 35.8 µM | TGI (P388/ADR leukemia): 44.2 µM | TGI (SNB-78 CNS): 41.5 µM | TGI (SN12K1 renal): 36.9 µM | TGI (P388 leukemia): 38.2 µM

O=c1cc(CO)oc2c3c(cc(O)c12)OCC(COC1OC(CO)C(O)C(O)C1O)=CC3 (stereo not drawn)
TGI (SNB-78 CNS): > 100 µM

CCOc1ccc2[nH]c3c(C)c4ccncc4c(C)c3c2c1
TGI (RXF-631 renal): 2.61 µM | TGI (SNB-78 CNS): 3.12 µM

COc1ccc(C(c2c(O)c3ccccc3n(-c3ccccc3)c2=O)c2c(O)c3ccccc3n(-c3ccccc3)c2=O)cc1
TGI (SNB-78 CNS): > 100 µM

COc1ccc(C(=O)O[C@H]2[C@@H]3C=CO[C@@H](OC4OC(CO)C(O)C(O)C4O)[C@@H]3[C@@]3(CO)O[C@@H]23)cc1O (stereo partly drawn)
TGI (RXF-631 renal): > 100 µM | TGI (SNB-78 CNS): > 100 µM

CCN(CC)CCCNc1ccc2nc(C)n3c4ccc(O)cc4c(=O)c1c23
TGI (RXF-631 renal): 17.4 µM | TGI (SNB-78 CNS): 19.6 µM
